Blank lines part the entries; values can stand above or below the compound they belong to.
Legend:
A498 = experiment: Cytotoxicity against human A498 cells assessed as reduction in cell viability incubated for 48 hrs by MTT assay; type: functional, cell-based; settings: A498, 48 h
CAKI-1 = experiment: Cytotoxicity against human CAKI-1 cells assessed as reduction in cell growth incubated for 48 hrs by MTT assay; type: functional, cell-based; settings: CAKI-1, 48 h
MCF7 [1] = experiment: Cytotoxicity against human MCF7 cells assessed as reduction in cell viability measured after 72 hrs by MTT assay; type: functional, cell-based; settings: MCF7, 72 h
[2] = target: T1, Vascular endothelial growth factor receptor 2 (Homo sapiens, UniProt P35968); experiment: Inhibition of human recombinant VEGFR2 using biotinylated poly-GluTyr (4:1) as susbtrate measured for 1 hr by ELISA method
HepG2 [3] = experiment: Cytotoxicity against human HepG2 cells assessed as reduction in cell viability measured after 72 hrs by MTT assay; type: functional, cell-based; settings: HepG2, 72 h
[4] = Cytotoxicity against African green monkey Vero cells assessed as inhibition of cell growth incubated for 24 hrs by MTT assay; type: toxicity, cell-based, Chlorocebus sabaeus
HCT-116 [5] = experiment: Cytotoxicity against human HCT-116 cells assessed as reduction in cell viability measured after 72 hrs by MTT assay; type: functional, cell-based; settings: HCT-116, 72 h
MCF7 [6] = experiment: Antiproliferative activity against human MCF7 cells assessed as cell growth inhibition measured for 24 hrs by MTT assay; type: functional, cell-based; settings: MCF7, 24 h
[7] = target: T1, Vascular endothelial growth factor receptor 2; experiment: Inhibition of VEGFR2 (unknown origin)
[8] = target: Vascular endothelial growth factor receptor 1 (Homo sapiens, UniProt P17948); experiment: Inhibition of VEGFR1 (unknown origin)
Histone deacetylase 4 = Histone deacetylase 4 (Homo sapiens, UniProt P56524); experiment: Inhibition of HDAC4 (unknown origin)
[9] = target: Vascular endothelial growth factor receptor 3 (Homo sapiens, UniProt P35916); experiment: Inhibition of VEGFR3 (unknown origin)
[10] = target: T2, Protein deacetylase HDAC6 (Homo sapiens, UniProt Q9UBN7); experiment: Inhibition of HDAC6 (unknown origin)
T2 sequence (Q9UBN7 whole entry): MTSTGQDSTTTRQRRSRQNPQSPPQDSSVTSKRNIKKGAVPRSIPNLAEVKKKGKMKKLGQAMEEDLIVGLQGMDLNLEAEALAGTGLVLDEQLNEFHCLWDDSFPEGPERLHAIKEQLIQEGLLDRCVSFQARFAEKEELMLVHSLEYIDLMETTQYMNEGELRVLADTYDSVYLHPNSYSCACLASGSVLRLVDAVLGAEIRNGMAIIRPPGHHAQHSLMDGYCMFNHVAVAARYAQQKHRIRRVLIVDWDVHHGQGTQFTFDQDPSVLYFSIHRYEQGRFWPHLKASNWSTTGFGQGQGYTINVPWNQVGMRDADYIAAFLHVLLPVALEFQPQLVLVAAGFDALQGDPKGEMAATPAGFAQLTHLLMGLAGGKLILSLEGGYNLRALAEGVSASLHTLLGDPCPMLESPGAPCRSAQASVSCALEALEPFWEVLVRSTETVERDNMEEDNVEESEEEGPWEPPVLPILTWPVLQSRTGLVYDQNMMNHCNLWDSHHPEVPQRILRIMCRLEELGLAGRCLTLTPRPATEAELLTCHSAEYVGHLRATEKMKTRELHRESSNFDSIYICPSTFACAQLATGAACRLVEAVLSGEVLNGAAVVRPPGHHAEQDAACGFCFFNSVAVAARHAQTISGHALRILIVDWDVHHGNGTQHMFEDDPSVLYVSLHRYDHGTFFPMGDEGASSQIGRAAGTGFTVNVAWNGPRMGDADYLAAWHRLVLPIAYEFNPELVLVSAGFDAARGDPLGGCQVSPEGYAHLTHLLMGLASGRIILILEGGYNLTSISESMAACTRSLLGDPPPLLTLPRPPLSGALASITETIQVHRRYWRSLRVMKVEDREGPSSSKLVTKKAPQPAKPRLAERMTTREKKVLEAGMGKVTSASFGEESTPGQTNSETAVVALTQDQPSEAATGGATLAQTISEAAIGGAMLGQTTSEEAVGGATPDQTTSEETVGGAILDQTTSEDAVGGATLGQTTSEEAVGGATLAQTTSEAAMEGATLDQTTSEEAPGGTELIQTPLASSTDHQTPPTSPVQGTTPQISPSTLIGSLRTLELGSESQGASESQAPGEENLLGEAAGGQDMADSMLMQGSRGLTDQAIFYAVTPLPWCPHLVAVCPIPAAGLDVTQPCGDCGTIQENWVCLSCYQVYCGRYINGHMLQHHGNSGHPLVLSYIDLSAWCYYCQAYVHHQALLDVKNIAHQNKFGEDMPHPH

Histone deacetylase 1 = Histone deacetylase 1 (Homo sapiens, UniProt Q13547); experiment: Inhibition of HDAC1 (unknown origin)
[11] = target: T1, Vascular endothelial growth factor receptor 2; experiment: Inhibition of VEGFR2 (unknown origin) by FRET based assay
[12] = target: T1, Vascular endothelial growth factor receptor 2; experiment: Inhibition of human VEGFR2 by discoverX kinome scan assay
[13] = target: T1, Vascular endothelial growth factor receptor 2; experiment: Inhibition of VEGFR2 (unknown origin) by kinase profiling assay
[14] = Cytotoxicity against HUVEC cells assessed as cell growth inhibition incubated for 72 hrs by MTT assay; type: toxicity, cell-based; settings: human
[15] = Inhibition of VEGFR (unknown origin); parameters: species or system Homo sapiens
[16] = target: Serine/threonine-protein kinase B-raf (Homo sapiens, UniProt P15056, V600E); experiment: Inhibition of BRAF V600E mutant (unknown origin)
[17] = target: RAF proto-oncogene serine/threonine-protein kinase (Homo sapiens, UniProt P04049); experiment: Inhibition of C-RAF (unknown origin)
[18] = target: T1, Vascular endothelial growth factor receptor 2; experiment: Inhibition of human recombinant VEGFR2
[19] = target: Serine/threonine-protein kinase B-raf (Homo sapiens, UniProt P15056); experiment: Inhibition of wild type BRAF (unknown origin)
HCT-116 [20] = experiment: Cytotoxicity against human HCT-116 cells assessed as inhibition of cell growth incubated for 48 hrs by MTT assay; type: functional, cell-based; settings: HCT-116, 48 h
PC-3 = experiment: Cytotoxicity against human PC-3 cells assessed as inhibition of cell growth incubated for 48 hrs by MTT assay; type: functional, cell-based; settings: PC-3, 48 h
HepG2 [21] = experiment: Cytotoxicity against human HepG2 cells assessed as inhibition of cell growth incubated for 48 hrs by MTT assay; type: functional, cell-based; settings: HepG2, 48 h
MCF7 [22] = experiment: Cytotoxicity against human MCF7 cells assessed as inhibition of cell growth incubated for 48 hrs by MTT assay; type: functional, cell-based; settings: MCF7, 48 h
[23] = target: T1, Vascular endothelial growth factor receptor 2; experiment: Inhibition of VEGFR2 (unknown origin) incubated for 1 hr in presence of ATP by ELISA method
HepG2 [24] = experiment: Antiproliferative activity against human HepG2 cells assessed as cell growth inhibition measured for 24 hrs by MTT assay; type: functional, cell-based; settings: HepG2, 24 h
A549 = experiment: Antiproliferative activity against human A549 cells assessed as cell growth inhibition measured for 24 hrs by MTT assay; type: functional, cell-based; settings: A549, 24 h
[25] = target: Epidermal growth factor receptor (Homo sapiens, UniProt P00533); experiment: Inhibition of EGFR (unknown origin) by DiscoverX KINOMEscan assay
[26] = Antiproliferative actiivty against human WI-38 cells assessed as reduction in cell viability by MTT assay; type: toxicity, cell-based
[27] = target: T1, Vascular endothelial growth factor receptor 2; experiment: Inhibition of human VEGFR2
HCT-116 [28] = experiment: Antiproliferative actiivty against human HCT-116 cells assessed as reduction in cell viability by MTT assay; type: functional, cell-based
MCF7 [29] = experiment: Antiproliferative actiivty against human MCF7 cells assessed as reduction in cell viability by MTT assay; type: functional, cell-based

T1 sequence (P35968 whole entry): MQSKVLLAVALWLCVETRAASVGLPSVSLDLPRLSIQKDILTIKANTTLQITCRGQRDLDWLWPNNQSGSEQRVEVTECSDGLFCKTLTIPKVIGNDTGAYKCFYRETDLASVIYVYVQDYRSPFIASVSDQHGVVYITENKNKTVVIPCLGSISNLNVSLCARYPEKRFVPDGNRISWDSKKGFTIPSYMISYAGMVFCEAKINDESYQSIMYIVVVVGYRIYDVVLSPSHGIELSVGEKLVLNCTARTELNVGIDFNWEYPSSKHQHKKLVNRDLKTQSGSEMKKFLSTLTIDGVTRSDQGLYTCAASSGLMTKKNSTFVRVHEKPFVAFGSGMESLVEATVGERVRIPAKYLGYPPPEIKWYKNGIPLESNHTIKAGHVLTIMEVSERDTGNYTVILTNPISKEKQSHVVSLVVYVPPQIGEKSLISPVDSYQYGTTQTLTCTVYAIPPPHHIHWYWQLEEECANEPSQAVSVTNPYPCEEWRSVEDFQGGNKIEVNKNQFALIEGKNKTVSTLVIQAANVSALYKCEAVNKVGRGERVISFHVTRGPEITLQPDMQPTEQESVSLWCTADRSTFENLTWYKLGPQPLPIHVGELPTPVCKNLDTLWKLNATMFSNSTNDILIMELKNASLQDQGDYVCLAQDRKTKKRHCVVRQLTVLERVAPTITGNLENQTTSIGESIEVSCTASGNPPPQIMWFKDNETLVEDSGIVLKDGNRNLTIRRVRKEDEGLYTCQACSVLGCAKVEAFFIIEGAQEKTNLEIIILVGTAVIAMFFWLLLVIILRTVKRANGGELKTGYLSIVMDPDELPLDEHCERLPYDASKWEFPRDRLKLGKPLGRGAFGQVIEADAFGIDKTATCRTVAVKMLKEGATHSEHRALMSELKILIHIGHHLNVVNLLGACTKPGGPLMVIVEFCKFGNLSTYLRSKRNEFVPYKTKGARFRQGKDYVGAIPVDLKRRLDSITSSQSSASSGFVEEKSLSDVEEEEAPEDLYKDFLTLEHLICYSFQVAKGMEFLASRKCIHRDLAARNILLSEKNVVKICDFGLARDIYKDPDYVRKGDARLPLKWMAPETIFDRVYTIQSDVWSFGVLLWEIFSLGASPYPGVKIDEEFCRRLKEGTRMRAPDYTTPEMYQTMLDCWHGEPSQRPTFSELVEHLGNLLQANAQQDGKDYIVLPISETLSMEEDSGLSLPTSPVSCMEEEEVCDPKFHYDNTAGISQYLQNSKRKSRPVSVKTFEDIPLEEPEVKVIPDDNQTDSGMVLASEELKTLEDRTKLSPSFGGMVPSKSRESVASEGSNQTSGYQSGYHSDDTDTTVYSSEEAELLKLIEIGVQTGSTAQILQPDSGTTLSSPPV
Vascular endothelial growth factor receptor 1, sequence (P17948 whole entry): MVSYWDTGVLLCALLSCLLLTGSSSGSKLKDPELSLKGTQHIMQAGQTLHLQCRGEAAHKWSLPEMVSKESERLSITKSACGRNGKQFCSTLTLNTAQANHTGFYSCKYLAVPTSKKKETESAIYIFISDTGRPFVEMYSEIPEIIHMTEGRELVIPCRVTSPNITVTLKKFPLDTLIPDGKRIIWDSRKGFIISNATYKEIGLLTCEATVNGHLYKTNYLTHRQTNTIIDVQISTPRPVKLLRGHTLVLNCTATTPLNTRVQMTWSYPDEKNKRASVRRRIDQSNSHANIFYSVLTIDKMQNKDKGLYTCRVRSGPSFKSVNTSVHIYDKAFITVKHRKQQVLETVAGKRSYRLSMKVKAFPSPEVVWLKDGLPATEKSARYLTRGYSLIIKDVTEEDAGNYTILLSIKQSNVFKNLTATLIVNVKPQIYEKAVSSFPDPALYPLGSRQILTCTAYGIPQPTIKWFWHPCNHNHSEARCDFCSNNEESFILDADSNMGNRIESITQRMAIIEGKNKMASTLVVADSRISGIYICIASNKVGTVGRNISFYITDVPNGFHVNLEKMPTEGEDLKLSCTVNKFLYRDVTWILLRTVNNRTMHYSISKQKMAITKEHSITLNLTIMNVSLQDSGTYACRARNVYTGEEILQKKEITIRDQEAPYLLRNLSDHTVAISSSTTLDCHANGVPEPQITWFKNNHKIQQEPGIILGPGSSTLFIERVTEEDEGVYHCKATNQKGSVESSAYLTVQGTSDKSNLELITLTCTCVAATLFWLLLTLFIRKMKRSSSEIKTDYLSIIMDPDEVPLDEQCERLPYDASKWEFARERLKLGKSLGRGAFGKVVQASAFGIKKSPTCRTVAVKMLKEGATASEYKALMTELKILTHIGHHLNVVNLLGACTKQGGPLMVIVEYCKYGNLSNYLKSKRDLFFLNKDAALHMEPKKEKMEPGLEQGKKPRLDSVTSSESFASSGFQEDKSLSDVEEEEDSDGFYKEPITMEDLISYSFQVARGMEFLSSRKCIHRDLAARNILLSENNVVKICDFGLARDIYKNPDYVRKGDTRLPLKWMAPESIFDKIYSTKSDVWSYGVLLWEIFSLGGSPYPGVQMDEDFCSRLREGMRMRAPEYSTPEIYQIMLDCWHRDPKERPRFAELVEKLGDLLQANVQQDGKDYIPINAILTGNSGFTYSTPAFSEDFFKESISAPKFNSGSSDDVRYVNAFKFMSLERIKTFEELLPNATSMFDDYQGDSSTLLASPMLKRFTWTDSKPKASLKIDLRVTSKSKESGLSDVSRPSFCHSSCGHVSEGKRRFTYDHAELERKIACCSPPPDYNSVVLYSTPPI
Histone deacetylase 4, sequence (P56524 whole entry): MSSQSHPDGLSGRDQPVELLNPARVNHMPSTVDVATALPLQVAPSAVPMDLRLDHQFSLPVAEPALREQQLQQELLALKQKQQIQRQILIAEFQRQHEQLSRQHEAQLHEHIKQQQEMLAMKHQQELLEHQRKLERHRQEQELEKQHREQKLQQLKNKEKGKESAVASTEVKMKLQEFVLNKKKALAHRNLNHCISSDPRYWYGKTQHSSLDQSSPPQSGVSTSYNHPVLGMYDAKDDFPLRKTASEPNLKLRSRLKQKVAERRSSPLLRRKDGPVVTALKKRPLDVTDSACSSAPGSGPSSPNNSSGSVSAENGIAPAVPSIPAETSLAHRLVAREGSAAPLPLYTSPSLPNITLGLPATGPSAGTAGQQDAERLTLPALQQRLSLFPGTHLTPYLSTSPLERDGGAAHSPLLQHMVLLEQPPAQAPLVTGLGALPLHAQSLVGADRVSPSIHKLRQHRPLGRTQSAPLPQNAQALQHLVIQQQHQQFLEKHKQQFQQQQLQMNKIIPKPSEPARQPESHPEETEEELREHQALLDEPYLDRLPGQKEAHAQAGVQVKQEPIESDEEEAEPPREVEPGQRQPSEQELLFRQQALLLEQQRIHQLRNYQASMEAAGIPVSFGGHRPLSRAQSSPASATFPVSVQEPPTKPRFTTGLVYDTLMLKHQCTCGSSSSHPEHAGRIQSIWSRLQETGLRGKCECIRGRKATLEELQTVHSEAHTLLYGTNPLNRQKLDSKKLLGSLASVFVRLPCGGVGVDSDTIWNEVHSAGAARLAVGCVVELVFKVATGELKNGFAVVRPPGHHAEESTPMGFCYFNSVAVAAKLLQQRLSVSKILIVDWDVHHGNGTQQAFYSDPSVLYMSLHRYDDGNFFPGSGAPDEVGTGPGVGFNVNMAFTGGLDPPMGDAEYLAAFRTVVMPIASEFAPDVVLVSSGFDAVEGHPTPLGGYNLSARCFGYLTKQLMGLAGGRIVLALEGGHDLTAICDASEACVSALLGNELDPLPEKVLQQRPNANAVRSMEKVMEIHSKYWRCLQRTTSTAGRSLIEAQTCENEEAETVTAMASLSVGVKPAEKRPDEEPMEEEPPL
Vascular endothelial growth factor receptor 3, sequence (P35916 whole entry): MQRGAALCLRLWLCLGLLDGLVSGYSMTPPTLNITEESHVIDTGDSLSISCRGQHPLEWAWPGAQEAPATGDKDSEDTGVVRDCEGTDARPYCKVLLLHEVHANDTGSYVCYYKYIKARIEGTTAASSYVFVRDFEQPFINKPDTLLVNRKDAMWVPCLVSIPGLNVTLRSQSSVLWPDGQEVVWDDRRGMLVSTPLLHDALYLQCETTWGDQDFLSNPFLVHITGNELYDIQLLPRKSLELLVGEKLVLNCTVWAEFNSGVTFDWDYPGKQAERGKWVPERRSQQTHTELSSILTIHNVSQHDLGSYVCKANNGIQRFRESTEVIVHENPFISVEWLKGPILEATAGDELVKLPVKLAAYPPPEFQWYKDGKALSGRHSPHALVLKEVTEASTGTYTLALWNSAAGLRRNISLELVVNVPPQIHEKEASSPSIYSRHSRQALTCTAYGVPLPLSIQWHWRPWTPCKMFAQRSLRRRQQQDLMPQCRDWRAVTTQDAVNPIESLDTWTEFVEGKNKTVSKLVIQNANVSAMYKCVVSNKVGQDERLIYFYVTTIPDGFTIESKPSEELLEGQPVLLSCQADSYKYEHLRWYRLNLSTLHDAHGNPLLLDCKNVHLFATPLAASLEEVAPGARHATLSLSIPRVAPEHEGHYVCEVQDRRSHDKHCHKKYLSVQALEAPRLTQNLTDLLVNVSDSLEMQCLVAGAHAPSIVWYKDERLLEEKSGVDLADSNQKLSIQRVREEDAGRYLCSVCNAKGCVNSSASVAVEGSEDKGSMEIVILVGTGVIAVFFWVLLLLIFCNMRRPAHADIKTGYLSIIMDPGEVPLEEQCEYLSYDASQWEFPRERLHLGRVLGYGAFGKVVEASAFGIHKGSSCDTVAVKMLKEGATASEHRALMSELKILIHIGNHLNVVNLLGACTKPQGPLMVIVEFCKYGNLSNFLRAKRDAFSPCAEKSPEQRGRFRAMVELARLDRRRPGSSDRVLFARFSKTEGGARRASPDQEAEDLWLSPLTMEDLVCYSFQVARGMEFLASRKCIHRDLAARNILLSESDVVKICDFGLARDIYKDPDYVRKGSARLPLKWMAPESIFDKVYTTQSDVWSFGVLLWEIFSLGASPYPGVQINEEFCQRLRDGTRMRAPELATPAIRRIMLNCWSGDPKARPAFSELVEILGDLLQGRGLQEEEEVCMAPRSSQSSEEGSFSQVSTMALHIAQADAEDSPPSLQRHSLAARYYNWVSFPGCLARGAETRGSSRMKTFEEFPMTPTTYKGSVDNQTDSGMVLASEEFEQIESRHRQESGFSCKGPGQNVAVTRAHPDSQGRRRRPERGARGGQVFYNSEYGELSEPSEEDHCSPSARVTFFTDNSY

Structure (SMILES): Cc1ccc(/C=N/n2c(-c3cc4ccccc4[nH]3)n[nH]c2=S)cc1
IC50 (A498): 7.36 µM
IC50 (CAKI-1): 6.28 µM

Structure (SMILES): Cc1cc(Oc2ncnc3sc4c(c23)CCCCC4)ccc1Cl
IC50 (MCF7 [6]): 0.66 µM

Structure (SMILES): Cc1cc(NS(=O)(=O)c2ccc(NN=C3C(=O)NNC3=O)cc2)no1
IC50 (MCF7 [1]): 14.3 µM
IC50 [2]: 0.15 µM
IC50 (HepG2 [3]): 8.65 µM
IC50 at 24 h [4]: 36.3 µM
IC50 (HCT-116 [5]): 7.49 µM

Structure (SMILES): COc1ccc(/C=N/n2c(-c3cc4ccccc4[nH]3)n[nH]c2=S)cc1
IC50 (A498): 20.6 µM
IC50 (CAKI-1): 1.63 µM

Structure (SMILES): O=C(CSc1nc2sc3c(c2c(=O)n1-c1ccc(Cl)cc1)CCCC3)NNC(=O)Nc1cccc(C(F)(F)F)c1
IC50 [7]: 0.111 µM
IC50 [19]: 0.071 µM
IC50 [16]: 0.089 µM

Structure (SMILES): O=C(NC1=NN2C(=O)/C(=C/c3ccco3)N=C2S1)c1cccs1
IC50 (HCT-116 [20]): 5.26 µM
IC50 [7]: 9.4 µM
IC50 (PC-3): 8.01 µM
IC50 (HepG2 [21]): 6.8 µM
IC50 (MCF7 [22]): 4.36 µM

Structure (SMILES): O=C(c1ccccc1)n1cc(-c2nc3cc(Cl)ccc3[nH]c2=O)c(=O)[nH]1
IC50 [26]: 99.2 µM
IC50 [27]: 0.144 µM
IC50 (HCT-116 [28]): 4.28 µM
IC50 (MCF7 [29]): 3.57 µM

Structure (SMILES): C/C(=N\N1C(=O)CNC1=S)c1ccc(O)cc1O
IC50 (MCF7 [6]): 2.26 µM
IC50 (HepG2 [24]): 5.18 µM
IC50 (A549): 3.14 µM
IC50 [25]: 23.2 µM

The next lines start with results.

IC50 [2]: 0.15 µM
Structure (SMILES): CCOC(=O)/C(=N\Nc1ccc(S(=O)(=O)Nc2nc(C)cc(C)n2)cc1)C(=O)NNc1ccccc1
IC50 (MCF7 [1]): 13.8 µM
IC50 (HepG2 [3]): 8.97 µM
IC50 at 24 h [4]: 59.8 µM
IC50 (HCT-116 [5]): 10.1 µM

IC50 [7]: 0.032 µM
IC50 [8]: 0.041 µM
IC50 (Histone deacetylase 4): > 9.17 µM
IC50 [9]: 0.066 µM
IC50 [10]: 0.063 µM
IC50 (Histone deacetylase 1): 0.24 µM
Structure (SMILES): Cc1c2ccc(Nc3ccnc(Nc4ccc(OCCCCCCC(=O)NO)cc4)n3)cc2nn1C

IC50 [11]: 0.0388 µM
Structure (SMILES): O=C(CN1CCN(c2cc(=O)[nH]c3c(-c4ccccc4)cccc23)CC1)Nc1ccc(F)cc1

IC50 [12]: 58 µM
IC50 [13]: 58 µM
Structure (SMILES): COc1ccc(-c2nc3c4cc(-c5ccc(OC)cc5)oc4ccn3n2)cc1
IC50 at 72 h [14]: 22.6 µM

IC50 [15]: 20.6 µM
IC50 [16]: > 100 µM
IC50 [17]: > 100 µM
Structure (SMILES): COc1ccc(-n2c(SCC(=O)Nc3ccc(-c4nc5ccccc5[nH]4)cc3)nc3ccccc3c2=O)cc1

IC50 [18]: 0.0524 µM
Structure (SMILES): Cc1[nH]c2ncnc(Nc3ccc(NC(=O)Nc4cccc(C(F)(F)F)c4)c(F)c3)c2c1C

IC50 [8]: 0.034 µM
IC50 (Histone deacetylase 4): > 10 µM
IC50 [9]: 0.037 µM
IC50 [10]: 8.96 µM
Structure (SMILES): CCCNNC(=O)c1ccc(Nc2nccc(N(C)c3ccc4c(C)n(C)nc4c3)n2)cc1

IC50 [23]: 199 µM
Structure (SMILES): COc1cc(-c2nc(SCC(=O)Nc3ccc(C(C)=O)cc3)[nH]c(=O)c2C#N)cc(OC)c1OC

IC50 (MCF7 [6]): 1.63 µM
IC50 (HepG2 [24]): 2.44 µM
IC50 (A549): 1.27 µM
IC50 [25]: 11.4 µM
Structure (SMILES): CCOC(=O)/C(C#N)=C(\c1ccc(O)cc1)N1CC(=O)N(/N=C(\C)c2ccc(O)cc2O)C1=S

Reference: ChEMBL document CHEMBL5500383, “Recent advances and future directions on small molecule VEGFR inhibitors in oncological conditions” (Eur J Med Chem, 2024)
